Results as given in patent publication US10670605B2, “Cysteine reactive probes and uses thereof” (The Scripps Research Institute, priority 2015, dated 2020).
Where a name gives a salt, the structure may show the parent alone.

Assays:
Test in all cases: isoTOP-ABPP of compound-treated primary human T cells
Format in all cases: cell-based
[1] = biological target: T1, Cys residues in primary human T cells (Homo sapiens, UniProt A6NDG6); settings: PGP C297 (A6NDG6)
T1 sequence (A6NDG6 1-321): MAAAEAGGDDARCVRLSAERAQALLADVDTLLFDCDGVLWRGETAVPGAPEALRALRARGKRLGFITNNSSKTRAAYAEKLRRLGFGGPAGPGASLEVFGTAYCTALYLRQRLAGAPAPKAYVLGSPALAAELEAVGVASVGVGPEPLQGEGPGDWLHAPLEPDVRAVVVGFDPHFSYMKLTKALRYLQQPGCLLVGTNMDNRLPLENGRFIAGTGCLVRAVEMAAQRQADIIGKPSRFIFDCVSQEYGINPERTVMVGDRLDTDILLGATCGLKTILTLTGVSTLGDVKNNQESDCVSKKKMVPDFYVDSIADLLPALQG

[2] = biological target: Cys residues in primary human T cells (Homo sapiens, UniProt O00170); settings: AIP C122 (O00170)
Cys residues in primary human T cells (Homo sapiens, UniProt O00170), sequence (O00170 whole entry): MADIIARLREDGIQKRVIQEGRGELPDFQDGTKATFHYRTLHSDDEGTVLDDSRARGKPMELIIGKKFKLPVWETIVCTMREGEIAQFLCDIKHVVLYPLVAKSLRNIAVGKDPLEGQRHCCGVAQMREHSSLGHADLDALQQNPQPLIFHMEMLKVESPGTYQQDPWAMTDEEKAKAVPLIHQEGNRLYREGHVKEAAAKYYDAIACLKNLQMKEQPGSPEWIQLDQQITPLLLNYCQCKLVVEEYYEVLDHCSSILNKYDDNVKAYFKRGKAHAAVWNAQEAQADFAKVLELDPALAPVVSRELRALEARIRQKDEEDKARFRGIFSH

[3] = biological target: Cys residues in primary human T cells (Homo sapiens, UniProt O14976); settings: GAK C87 (O14976)
Cys residues in primary human T cells (Homo sapiens, UniProt O14976), sequence (O14976 whole entry): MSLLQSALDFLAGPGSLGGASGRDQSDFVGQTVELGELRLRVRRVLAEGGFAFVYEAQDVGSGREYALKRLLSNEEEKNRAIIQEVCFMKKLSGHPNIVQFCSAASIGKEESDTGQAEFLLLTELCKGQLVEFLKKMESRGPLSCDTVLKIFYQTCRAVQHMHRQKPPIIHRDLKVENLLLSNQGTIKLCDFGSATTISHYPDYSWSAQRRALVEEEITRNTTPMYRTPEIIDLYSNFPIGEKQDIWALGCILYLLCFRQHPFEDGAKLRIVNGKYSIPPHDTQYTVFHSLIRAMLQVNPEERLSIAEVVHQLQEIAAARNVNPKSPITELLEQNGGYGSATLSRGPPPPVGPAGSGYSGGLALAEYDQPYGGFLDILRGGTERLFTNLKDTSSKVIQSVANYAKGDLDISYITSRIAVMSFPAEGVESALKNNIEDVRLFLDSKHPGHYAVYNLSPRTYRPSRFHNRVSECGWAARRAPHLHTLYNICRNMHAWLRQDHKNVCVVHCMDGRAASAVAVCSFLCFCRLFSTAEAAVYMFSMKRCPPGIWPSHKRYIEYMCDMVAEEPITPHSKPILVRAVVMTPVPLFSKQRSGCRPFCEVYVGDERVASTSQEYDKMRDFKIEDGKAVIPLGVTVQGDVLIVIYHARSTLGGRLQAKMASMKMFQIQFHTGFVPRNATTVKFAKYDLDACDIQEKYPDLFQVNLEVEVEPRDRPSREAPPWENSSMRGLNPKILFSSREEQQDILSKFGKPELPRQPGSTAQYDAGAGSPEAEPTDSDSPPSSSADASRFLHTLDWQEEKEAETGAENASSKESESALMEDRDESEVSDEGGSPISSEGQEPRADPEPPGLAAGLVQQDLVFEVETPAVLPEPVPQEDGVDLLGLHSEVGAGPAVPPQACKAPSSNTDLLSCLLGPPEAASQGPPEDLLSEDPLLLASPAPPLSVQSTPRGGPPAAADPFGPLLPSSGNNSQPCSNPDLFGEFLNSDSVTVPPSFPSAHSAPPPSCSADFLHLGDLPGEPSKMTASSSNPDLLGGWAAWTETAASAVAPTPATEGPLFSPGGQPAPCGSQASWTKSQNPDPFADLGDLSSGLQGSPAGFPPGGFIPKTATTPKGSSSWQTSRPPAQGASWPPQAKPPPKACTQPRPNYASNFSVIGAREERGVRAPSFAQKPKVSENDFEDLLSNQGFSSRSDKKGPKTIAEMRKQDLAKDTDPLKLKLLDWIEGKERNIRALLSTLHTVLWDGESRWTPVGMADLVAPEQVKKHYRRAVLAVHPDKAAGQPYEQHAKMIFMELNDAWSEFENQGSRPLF

[4] = biological target: T2, Cys residues in primary human T cells (Homo sapiens, UniProt P00813); settings: ADA C75 (P00813)
T2 sequence (P00813 1-363): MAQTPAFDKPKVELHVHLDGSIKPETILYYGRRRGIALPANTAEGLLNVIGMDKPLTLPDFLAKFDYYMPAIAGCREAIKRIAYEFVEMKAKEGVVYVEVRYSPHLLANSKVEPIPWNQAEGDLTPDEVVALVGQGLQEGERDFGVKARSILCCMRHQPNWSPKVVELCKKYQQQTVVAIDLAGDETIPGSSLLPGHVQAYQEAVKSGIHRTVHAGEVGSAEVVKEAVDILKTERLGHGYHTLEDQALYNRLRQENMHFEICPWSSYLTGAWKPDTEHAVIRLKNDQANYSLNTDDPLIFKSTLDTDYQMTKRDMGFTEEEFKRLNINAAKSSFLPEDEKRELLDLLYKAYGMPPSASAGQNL

[5] = biological target: T3, Cys residues in primary human T cells (Homo sapiens, UniProt P29590); settings: PML C479 (P29590)
T3 sequence (P29590 1-882): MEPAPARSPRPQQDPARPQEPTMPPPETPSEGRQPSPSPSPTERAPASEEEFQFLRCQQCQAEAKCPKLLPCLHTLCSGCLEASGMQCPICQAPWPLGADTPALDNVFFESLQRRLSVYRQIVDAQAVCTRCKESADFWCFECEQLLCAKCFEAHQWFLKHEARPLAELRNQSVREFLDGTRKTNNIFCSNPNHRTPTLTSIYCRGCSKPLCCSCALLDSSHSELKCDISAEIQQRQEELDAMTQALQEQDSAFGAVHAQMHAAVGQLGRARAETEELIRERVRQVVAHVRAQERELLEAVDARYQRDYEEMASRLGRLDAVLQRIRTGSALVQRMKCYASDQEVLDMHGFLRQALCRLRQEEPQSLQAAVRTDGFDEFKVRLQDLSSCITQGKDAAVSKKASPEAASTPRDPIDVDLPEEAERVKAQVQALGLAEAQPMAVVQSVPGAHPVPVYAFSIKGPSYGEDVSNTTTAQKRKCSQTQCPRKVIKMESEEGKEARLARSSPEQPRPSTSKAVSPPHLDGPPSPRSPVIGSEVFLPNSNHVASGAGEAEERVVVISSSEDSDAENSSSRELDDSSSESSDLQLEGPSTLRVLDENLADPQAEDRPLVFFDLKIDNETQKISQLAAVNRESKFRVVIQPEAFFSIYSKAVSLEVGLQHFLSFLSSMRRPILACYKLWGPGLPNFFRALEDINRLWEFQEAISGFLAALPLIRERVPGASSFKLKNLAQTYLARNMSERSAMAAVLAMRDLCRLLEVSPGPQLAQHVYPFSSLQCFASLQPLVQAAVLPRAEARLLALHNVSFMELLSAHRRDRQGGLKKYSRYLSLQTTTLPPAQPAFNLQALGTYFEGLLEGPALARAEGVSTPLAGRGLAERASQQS

[6] = biological target: Cys residues in primary human T cells (Homo sapiens, UniProt Q8N0Z8); settings: PUSL1 C292 (Q8N0Z8); DMF 50 μM 4h
Cys residues in primary human T cells (Homo sapiens, UniProt Q8N0Z8), sequence (Q8N0Z8 whole entry): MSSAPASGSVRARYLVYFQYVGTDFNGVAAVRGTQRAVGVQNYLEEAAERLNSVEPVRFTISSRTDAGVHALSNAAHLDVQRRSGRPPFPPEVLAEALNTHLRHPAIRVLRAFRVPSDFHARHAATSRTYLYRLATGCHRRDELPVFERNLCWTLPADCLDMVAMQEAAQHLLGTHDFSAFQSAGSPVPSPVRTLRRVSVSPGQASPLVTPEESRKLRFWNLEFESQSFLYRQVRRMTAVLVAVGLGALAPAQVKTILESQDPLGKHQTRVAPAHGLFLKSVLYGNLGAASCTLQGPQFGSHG

[7] = biological target: Cys residues in primary human T cells (Homo sapiens, UniProt Q8WXH0); settings: SYNE2 C553 (Q8WXH0)
[8] = biological target: Cys residues in primary human T cells (Homo sapiens, UniProt Q93009); settings: USP7 C315 (Q93009)
Cys residues in primary human T cells (Homo sapiens, UniProt Q93009), sequence (Q93009 whole entry): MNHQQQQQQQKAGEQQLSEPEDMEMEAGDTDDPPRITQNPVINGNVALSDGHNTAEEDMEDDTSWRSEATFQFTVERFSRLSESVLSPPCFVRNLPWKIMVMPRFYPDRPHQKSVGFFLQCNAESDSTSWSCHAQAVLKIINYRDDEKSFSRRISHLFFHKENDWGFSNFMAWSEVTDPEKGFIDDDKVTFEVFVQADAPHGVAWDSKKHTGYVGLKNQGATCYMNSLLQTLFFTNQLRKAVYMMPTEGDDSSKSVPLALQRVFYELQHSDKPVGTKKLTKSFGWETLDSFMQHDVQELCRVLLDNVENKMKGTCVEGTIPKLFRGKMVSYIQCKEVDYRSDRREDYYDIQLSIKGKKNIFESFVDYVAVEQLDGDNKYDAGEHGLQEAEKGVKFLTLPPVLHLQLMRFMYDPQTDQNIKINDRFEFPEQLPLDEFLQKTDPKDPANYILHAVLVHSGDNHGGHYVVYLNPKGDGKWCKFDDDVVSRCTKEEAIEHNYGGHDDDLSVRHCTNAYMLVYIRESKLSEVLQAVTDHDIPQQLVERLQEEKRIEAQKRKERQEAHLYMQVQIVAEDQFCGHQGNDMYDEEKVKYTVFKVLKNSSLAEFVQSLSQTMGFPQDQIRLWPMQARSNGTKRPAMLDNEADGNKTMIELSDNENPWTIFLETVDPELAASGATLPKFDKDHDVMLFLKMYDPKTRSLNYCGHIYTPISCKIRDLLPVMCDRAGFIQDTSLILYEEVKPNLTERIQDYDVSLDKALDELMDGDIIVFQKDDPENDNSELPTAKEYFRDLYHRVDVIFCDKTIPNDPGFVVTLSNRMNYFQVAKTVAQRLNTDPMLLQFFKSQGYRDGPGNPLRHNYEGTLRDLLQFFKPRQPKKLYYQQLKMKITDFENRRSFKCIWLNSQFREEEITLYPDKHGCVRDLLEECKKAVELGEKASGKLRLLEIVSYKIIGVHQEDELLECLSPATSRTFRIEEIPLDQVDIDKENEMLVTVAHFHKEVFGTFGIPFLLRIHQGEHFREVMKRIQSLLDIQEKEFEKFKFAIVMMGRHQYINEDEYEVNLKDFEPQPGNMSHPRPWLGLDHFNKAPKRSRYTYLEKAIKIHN

[9] = biological target: T4, Cys residues in primary human T cells (Homo sapiens, UniProt Q9Y277)
T4 sequence (Q9Y277 1-283): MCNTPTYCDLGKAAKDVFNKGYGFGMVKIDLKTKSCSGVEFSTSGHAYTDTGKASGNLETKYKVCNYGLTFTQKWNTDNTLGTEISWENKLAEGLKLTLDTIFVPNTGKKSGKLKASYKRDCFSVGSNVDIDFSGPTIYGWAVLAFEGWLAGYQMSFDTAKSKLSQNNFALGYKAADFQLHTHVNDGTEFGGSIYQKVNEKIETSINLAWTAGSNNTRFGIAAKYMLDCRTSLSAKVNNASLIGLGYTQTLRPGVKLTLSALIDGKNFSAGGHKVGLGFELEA

[10] = tested on: Cys residues in primary human T cells; settings: 4 h

## COC(=O)/C=C/C(=O)OC [DMF, dimethyl fumarate]
[1]; DMF 50 μM 1h
  R value (DMSO/DMF): 3.06
[1]; DMF 50 μM 2h
  R value (DMSO/DMF): 4.21
[1]; DMF 50 μM 4h
  R value (DMSO/DMF): 10.77
[2]; DMF 50 μM 2h
  R value (DMSO/DMF): 3.05
[2]; DMF 50 μM 4h
  R value (DMSO/DMF): 6.14
[3]; DMF 10 μM 4h
  R value (DMSO/DMF): 1.36
[3]; DMF 50 μM 2h
  R value (DMSO/DMF): 4.79
[4]; DMF 10 μM 4h
  R value (DMSO/DMF): 2.29
[4]; DMF 50 μM 1h
  R value (DMSO/DMF): 2.51
[4]; DMF 50 μM 2h
  R value (DMSO/DMF): 5.08
[4]; DMF 50 μM 4h
  R value (DMSO/DMF): 20
[5]; DMF 10 μM 4h
  R value (DMSO/DMF): 2.1
[5]; DMF 25 μM 4h
  R value (DMSO/DMF): 2.17
[5]; DMF 50 μM 2h
  R value (DMSO/DMF): 4.57
[6]
  R value (DMSO/DMF): 4.68
[7]; DMF 10 μM 4h
  R value (DMSO/DMF): 1.61
[7]; DMF 50 μM 2h
  R value (DMSO/DMF): 3.29
[7]; DMF 50 μM 4h
  R value (DMSO/DMF): 4.05
[8]; DMF 10 μM 4h
  R value (DMSO/DMF): 1.9
[8]; DMF 50 μM 1h
  R value (DMSO/DMF): 5.33
[8]; DMF 50 μM 2h
  R value (DMSO/DMF): 14.06
[9]; VDAC3 C36 (Q9Y277), DMF 50 μM 1h
  R value (DMSO/DMF): 3.21
[9]; VDAC3 C36 (Q9Y277), DMF 50 μM 2h
  R value (DMSO/DMF): 3.98
[9]; VDAC3 C36 (Q9Y277), DMF 50 μM 4h
  R value (DMSO/DMF): 4.11
[9]; VDAC3 C65 (Q9Y277), DMF 10 μM 4h
  R value (DMSO/DMF): 1.73
[9]; VDAC3 C65 (Q9Y277), DMF 25 μM 4h
  R value (DMSO/DMF): 5.64
[9]; VDAC3 C65 (Q9Y277), DMF 50 μM 1h
  R value (DMSO/DMF): 3.35
[9]; VDAC3 C65 (Q9Y277), DMF 50 μM 2h
  R value (DMSO/DMF): 7.53
[9]; VDAC3 C65 (Q9Y277), DMF 50 μM 4h
  R value (DMSO/DMF): 15.94
[10]; 10 μM
  DMF-sensitive Cys residues detected: very few
[10]; 50 μM
  number of Cys residues with R value >4 (of more than 2400 quantified): ~40
